Experimental data reported in patent publication US11613750B2, “Methods of reducing virus molecule levels” (priority 2019, dated 2023).

How the values were obtained:
HBeAg = details: for HBeAg reduction HepG2.2.15 cells: 10 nM siRNA transfected into cells
Description: HBeAg in the cell culture media was assessed using ELISAs.
(§1) The ability of siRNAs targeting host factors that then results in the reduced production of multiple HBV molecules was evaluated by quantifying the amount of HBsAg, HBeAg, and Core protein produced by HepG2.2.15 cells after contacting with 10 nM of siRNAs that target HNRNPA2B1, GRP78, RPLP1, RPLP2, and SRSF1. We also contacted the cells with 5 nM of each set of siRNAs that targets both RPLP1 and RPLP2. The level of HBsAg, HBeAg, and Core were all determined using ELISAs.
(§2) The library of siRNAs of Example A5 were tested for the reduction of HBsAg secreted by HepG2.2.15 cells and in HBV virions.

HCoV-OC43 [1] = assay: OC43 virion RNA, Branched DNA assay, infected HCT8 cells; assay type: cell-based, human coronavirus OC43; set-up: reduction in OC43 vRNA: dose or concentration left out as unconfirmed; details: for OC43 vRNA reduction siRNA and siGRP78: 10 nM siRNA along with 10 nM of siRNA targeting GRP78, HCT8 cells; for OC43 vRNA reduction: 10 nM siRNA
Description: The siRNAs were transfected in the HCT8 cells at a final concentration of 10 nM. A positive control for the inhibition of Coronavirus infection, Remdesivir (Rem), was used at 0.9 μM. The virion RNAs (vRNAs) were quantified using a Branched DNA assay specific for OC43 RNA.
The two siRNAs are those referred to by compound number (see Table 2) in the horizontal bar, along with siRNA targeting GRP78, siGRP78. A positive control for the inhibition of Coronavirus infection, Remdesivir (Rem), was used at 0.9 μM. The vRNAs were quantified using a Branched DNA assay specific for OC43 RNA.
The siRNAs listed in Table 2 were transfected into human colon epithelial HCT8 cells and the amount of OC43 virion produced was quantified. In these assays, the OC43 vRNA was quantified using a Branched DNA assay (QuantiGene gene expression assay: ThermoFisher). As a positive inhibitory control, the infected cells were treated with Remdesivir. […] Examples of the inhibition of OC43 vRNA are illustrated in FIG. 5A.
A combination of siRNAs targeting the host factor should more robustly reduce OC43 virion production. To illustrate this, HCT8 cells were transfected with 10 nM of siRNAs from Table 2 along with 10 nM of siRNA targeting GRP78. The virion RNAs produced were quantified using the Branched DNA assay. […] A combination of siRNAs targeting host factors GRP78, SRSF1, RPLP1 and RPLP2 can lead to significant reduction in the production of human Coronavirus virion RNA from infected cells.

HBsAg = details: HepG2.2.15 cells; for EC50: read-out: EC50, Extracell. HBsAg reduction
Description: (§3) Cell viability was assessed by ATP levels determined using the CellTiter-Glo reagent and the results normalized to the level in mock-treated cells. HBsAg levels were quantified using ELISA and the data normalized to the level in the mock-treated cells.
The cellular proteins GRP78/BIP, SRSF1, HNRNPA2B1, RPLP1, and RPLP2 were identified as having roles in HBV replication and infection. Various siRNAs and combinations thereof targeting the RNAs encoding these proteins were contacted with HepG2.2.15 cells at a final concentration of 7.5 nM.
The EC50 values of several siRNAs and combinations of siRNAs targeting HNRNPA2B1, GRP78, RPLP1, RPLP2, and/or SRSF1 were determined with respect to the ability to reduce HBsAg levels in HepG2.2.15 cells.
as §1, §2

GRP78 mRNA = assay: Target mRNA reduction by RT-qPCR in HepG2.2.15 cells; assay type: cell-based, human; details: 10 nM siRNA
Source text: (§4) The siRNAs identified as described in Example A6 should function by a mechanism that includes being loaded in the RISC complex to cleave the cognate mRNA, leading to the degradation of the mRNA. To examine whether the siRNAs are effective in reducing the target mRNA, we used reverse transcription coupled with quantitative polymerase chain reaction (RT-qPCR) to assess the level of the target mRNA in HepG2.2.15 cells. All 32 siRNAs described in Table 2 reduced the mRNA by more than 75% (Table 3).

GRP78 protein = assay: Target protein reduction by Western blot in HepG2.2.15 cells; assay type: cell-based, human; details: 10 nM siRNA, 72 h
Description: (§5) The host factors likely function in viral infection as proteins. Therefore, we determined whether the siRNAs could decrease the amounts of the target protein. Cell transfected with 10 nM of each siRNA for 72 h were lysed and the target proteins identified using Western blots probed with target-specific antibodies. The effective siRNAs described in Table 3 reduced the levels of the proteins by between 28 and 92% of the mock-treated samples. The reduction in the proteins is less than the reduction of the target mRNA, likely due to the proteins have prolonged half-life and that more time is needed for their degradation. […] We reason that this is due to RPLP1 and RPLP2 functioning as heterodimers such that a decrease of one protein increases the vulnerability of the other protein to degradation. Similar concomitant decrease of the proteins was reported by Campos et al. (17). Finally, the levels of two cellular proteins that are not targeted by the siRNAs, P54nrb and GAPDH, were unaffected.

HepG2.2.15 cells = assay: HepG2.2.15 cell viability, CellTiter-Glo; details: for CC50: read-out: CC50, HepG2.2.15 cell viability, highest concentration tested 80 nM
Description: as §3
The effects on cell viability were quantified using the CellTiter-Glo reagent. All data were normalized to the amount of protein produced by mock-treated cells.
as §2

RPLP1 mRNA = assay: Target mRNA reduction by RT-qPCR in HepG2.2.15 cells; assay type: cell-based, human; details: 10 nM siRNA
Source text: as §4

RPLP1 protein = assay: Target protein reduction by Western blot in HepG2.2.15 cells; assay type: cell-based, human; details: 10 nM siRNA, 72 h
Description: as §5

SRSF1 protein = assay: as above; assay type: cell-based, human; details: 10 nM siRNA, 72 h
Description: as §5

HCoV-OC43 [2] = assay: OC43 virion RNA, RT-qPCR of the OC43 N gene, infected HCT8 cells; assay type: cell-based, human coronavirus OC43; set-up: dose or concentration left out as unconfirmed
SRSF1 mRNA = assay: Target mRNA reduction by RT-qPCR in HepG2.2.15 cells; assay type: cell-based, human; details: 10 nM siRNA
Source text: as §4

Compound	HBeAg reduction HepG2.2.15 cells (HBeAg) [%]	OC43 vRNA reduction siRNA and siGRP78 (HCoV-OC43 [1]) [%]	OC43 vRNA reduction (HCoV-OC43 [1]; HCT8 cells) [%]	EC50 (HBsAg) [nM]	Target RNA reduction in HepG2.2.15 cells (GRP78 mRNA) [%]	Target protein reduction in HepG2.2.15 cells (GRP78 protein) [%]	CC50 (HepG2.2.15 cells) [nM]	Target RNA reduction in HepG2.2.15 cells (RPLP1 mRNA) [%]	Target protein reduction in HepG2.2.15 cells (RPLP1 protein) [%]	HBeAg level, siRNA library (HBeAg; HepG2.2.15 cells, Example A6, FIG. 5A)	HBsAg level, dose response (HBsAg; FIG. 5A)	cytotoxicity / cell viability, siRNA library (HepG2.2.15 cells; up to the highest concentration tested, 80 nM)	Target protein reduction in HepG2.2.15 cells (SRSF1 protein) [%]	reduction in OC43 vRNA (HCoV-OC43 [1]; HCT8 cells)	OC43 virion production remaining (HCoV-OC43 [2])	Target RNA reduction in HepG2.2.15 cells (SRSF1 mRNA) [%]
21 (CUGUUACAAUCAAGGUCUATTUAGACCUUGAUUGUAACAGTT; siRNA; Self-complementary hairpin strand, chemistry not given here, further chemistry not given here; listed as Homo sapiens) [compound 21]	61.5 ± 10	90 ± 4	89 ± 8	1.6	90 ± 3	59 ± 2	> 80	–	–	–	–	–	–	–	–	–
27 (GGUCUUUUUGACUAAACCUCUTTAGGUUUAGUCAAAAAGACCAATT; siRNA; Self-complementary hairpin strand, chemistry not given here, further chemistry not given here; listed as Homo sapiens) [compound 27]	55 ± 5	95 ± 2	94 ± 4	0.11	–	–	> 80	72 ± 7	51 ± 9	–	–	–	–	–	–	–
28 (UAUGGCCUCUGUCUCCGAGCUUUAGCUCGGAGACAGAGGCCAUAUU; siRNA; Self-complementary hairpin strand, chemistry not given here, further chemistry not given here; listed as Homo sapiens) [compound 28]	30 ± 4	71 ± 6	48 ± 12	0.19	–	–	> 80	80 ± 2	58 ± 7	–	–	–	–	–	–	–
24 (GCAAAGAAAGAAGAAUCCGTTCGGAUUCUUCUUUCUUUGCTT; siRNA; Self-complementary hairpin strand, chemistry not given here, further chemistry not given here; listed as Homo sapiens) [compound 24]	66 ± 2	94 ± 4	89 ± 8	0.359	–	–	> 80	80 ± 1	48 ± 3	inhibited the levels of HBsAg and HBeAg	dose-dependent reduction of HBV S-antigen (HBsAg)	without affecting cell viability	–	–	–	–
32 (AGAAGAAAGUGGAAGCAAAGAUUUCUUUGCUUCCACUUUCUUCUUU; siRNA; Self-complementary hairpin strand, chemistry not given here, further chemistry not given here; listed as Homo sapiens) [compound 32]	32 ± 6	86 ± 4	87 ± 4	0.525	–	–	> 80	80 ± 7	71 ± 8	–	–	–	–	–	–	–
23 (CUGGAUAACACUAAGUUUAUUUAAACUUAGUGUUAUCCAGUU; siRNA; Self-complementary hairpin strand, chemistry not given here, further chemistry not given here; listed as Homo sapiens) [compound 23]	29.8 ± 3	–	–	3.9	–	–	> 80	–	–	–	–	–	81 ± 11	–	–	–
CCC(CC)COC(=O)[C@H](C)N[P@](=O)(OC[C@H]1O[C@@](C#N)(c2ccc3c(N)ncnn23)[C@H](O)[C@@H]1O)Oc1ccccc1 [Remdesivir, reference compound]	–	–	–	–	–	–	–	–	–	–	–	–	–	more than 98%	less than 5%	–
30 (AGGAUAAGAUCAAUGCCCUUCUUGAAGGGCAUUGAUCUUAUCCUUU; siRNA; Self-complementary hairpin strand, chemistry not given here, further chemistry not given here; listed as Homo sapiens) [compound 30]	58 ± 4	84 ± 6	90 ± 6	0.69	–	–	> 80	78 ± 3	45 ± 8	–	–	–	–	–	–	–
22 (CAUCUACGUGGGUAACUUAUUUAAGUUACCCACGUAGAUGUU; siRNA; Self-complementary hairpin strand, chemistry not given here, further chemistry not given here; listed as Homo sapiens) [compound 22]	33.5 ± 5	85 ± 4	36 ± 3	0.9	–	–	> 80	–	–	–	–	–	92 ± 20	–	–	71 ± 1
25 (GAUCAAUGCCCUCAUUAAAGCTTUUUAAUGAGGGCAUUGAUCUUTT; siRNA; Self-complementary hairpin strand, chemistry not given here, further chemistry not given here; listed as Homo sapiens) [compound 25]	60 ± 3	88 ± 3	80 ± 7	1.83	–	–	> 80	74 ± 6	53 ± 12	–	–	–	–	–	–	–
29 (UGUCUCCGAGCUCGCCUGCAUUUAUGCAGGCGAGCUCGGAGACAUU; siRNA; Self-complementary hairpin strand, chemistry not given here, further chemistry not given here; listed as Homo sapiens) [compound 29]	58 ± 3	92 ± 3	87 ± 10	0.386	–	–	> 80	75 ± 1	52 ± 4	–	–	–	–	–	–	–
